Results reported in article PMC6934700, “Structure-Guided Design of a Fluorescent Probe for the Visualization of FtsZ in Clinically Important Gram-Positive and Gram-Negative Bacterial Pathogens” (Scientific Reports, 2019).
Like-named read-outs stand apart in the source and are kept apart here.

Tests used:
Details in all cases: for Kd: 50 mM Tris-HCl (pH 7.6), 50 mM KCl, 0.1 µM BOFP
[1] = target: E. faecalis (EfsFtsZ) (Enterococcus faecalis, UniProt O08439); experiment: Fluorescence anisotropy binding of BOFP to EfsFtsZ
Experimental: (§1) Fluorescence anisotropy experiments were performed using an AVIV model ATF105 spectrofluorometer at 15, 25, or 37 °C. In these experiments, bandwidths were set to 4 nm in both the excitation and emission directions, with the excitation and emission wavelengths being set at 488 nm and 510 nm, respectively. BOFP (0.1 µM) was titrated with increasing concentrations (ranging from 0 to 12 µM) of FtsZ in 120 µL of buffer containing 50 mM Tris-HCl (pH 7.6) and 50 mM KCl. After each protein addition, the samples were equilibrated for 3 minutes, whereupon the fluorescence anisotropy was measured.
(§2) In this equation, r0 is the anisotropy of the protein-free compound, r∞ is the anisotropy of the compound in the presence of an infinite concentration of FtsZ, [C]tot is the total concentration of the compound, and [P]tot is the total concentration of protein with each addition. These analyses yielded the equilibrium dissociation constant (Kd) for each binding reaction.
(§3) The binding free energy (ΔG) at temperature T was derived from the corresponding Kd value determined at T using the following relationship:2 ΔG=−RTln(1/Kd)
(§4) The binding enthalpy (ΔH) and entropy (ΔS) were derived from linear fits of the ln(1/Kd) vs. 1/T plots shown in Figs. 3f and 5e using the following relationship:3 ln(1/Kd)=−ΔH/R(1/T)+ΔS/R

[2] = target: T1, P. aeruginosa (PaFtsZ) (Pseudomonas aeruginosa, UniProt P47204); experiment: Fluorescence anisotropy binding of BOFP to PaFtsZ
T1 construct: 6xHis (C); made in house; host or cells: E. coli BLR (DE3), pET-22b(+)
T1 sequence (P47204 1-394): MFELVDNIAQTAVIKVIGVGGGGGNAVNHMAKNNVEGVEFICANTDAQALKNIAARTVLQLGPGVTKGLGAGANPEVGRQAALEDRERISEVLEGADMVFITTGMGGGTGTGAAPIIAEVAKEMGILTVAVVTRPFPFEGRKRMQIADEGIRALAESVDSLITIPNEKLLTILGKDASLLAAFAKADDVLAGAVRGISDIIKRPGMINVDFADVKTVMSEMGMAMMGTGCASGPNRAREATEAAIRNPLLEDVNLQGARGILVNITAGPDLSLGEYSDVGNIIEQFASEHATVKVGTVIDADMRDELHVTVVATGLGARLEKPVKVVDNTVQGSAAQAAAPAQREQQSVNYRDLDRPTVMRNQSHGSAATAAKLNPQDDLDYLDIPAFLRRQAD
Experimental: as §1, §2, §3, §4
In comparative control experiments, the anisotropy of 0.1 µM BODIPY FL-COOH or BOFP alone or in the presence of SaFtsZ (10 µM), SpyFtsZ (10 µM), KpFtsZ (2 µM), or PaFtsZ (2 µM) was measured at 37 °C in the same buffer described above.

[3] = target: T2, E. faecium (EfmFtsZ) (Enterococcus faecium, UniProt Q3Y2I1); experiment: Fluorescence anisotropy binding of BOFP to EfmFtsZ
T2 sequence (Q3Y2I1 1-413): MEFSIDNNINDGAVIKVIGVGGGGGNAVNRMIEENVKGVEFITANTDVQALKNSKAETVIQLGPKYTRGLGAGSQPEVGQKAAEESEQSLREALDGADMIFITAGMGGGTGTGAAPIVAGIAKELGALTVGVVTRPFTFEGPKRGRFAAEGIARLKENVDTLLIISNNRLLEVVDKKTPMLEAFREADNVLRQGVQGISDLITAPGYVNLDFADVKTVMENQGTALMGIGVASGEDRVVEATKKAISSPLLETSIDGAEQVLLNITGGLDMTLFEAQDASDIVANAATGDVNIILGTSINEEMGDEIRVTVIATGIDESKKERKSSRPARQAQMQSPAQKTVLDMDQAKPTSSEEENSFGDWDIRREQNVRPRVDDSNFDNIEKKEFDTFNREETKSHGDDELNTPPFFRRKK
Experimental: as §1, §2, §3, §4

[4] = target: E. coli (EcFtsZ) (Escherichia coli, UniProt P0A9A6); experiment: Fluorescence anisotropy binding of BOFP to EcFtsZ
Experimental: as §1, §2, §3, §4

[5] = calculated at T = 310 K (37 °C) from Kd
[6] = from linear fit of ln(1/Kd) vs. 1/T

Chain of E. faecalis (EfsFtsZ) (O08439 whole entry): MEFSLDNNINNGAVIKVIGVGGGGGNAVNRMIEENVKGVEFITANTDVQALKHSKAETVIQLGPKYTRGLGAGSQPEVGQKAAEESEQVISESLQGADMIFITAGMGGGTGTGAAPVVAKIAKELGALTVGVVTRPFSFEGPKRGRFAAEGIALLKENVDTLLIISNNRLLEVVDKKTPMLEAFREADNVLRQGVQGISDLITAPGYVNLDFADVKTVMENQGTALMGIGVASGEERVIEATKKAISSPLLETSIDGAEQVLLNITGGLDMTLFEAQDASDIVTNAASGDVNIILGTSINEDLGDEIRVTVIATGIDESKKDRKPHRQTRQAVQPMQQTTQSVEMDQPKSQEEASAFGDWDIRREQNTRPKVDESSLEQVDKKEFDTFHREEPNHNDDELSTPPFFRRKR
Chain of E. coli (EcFtsZ) (P0A9A6 whole entry): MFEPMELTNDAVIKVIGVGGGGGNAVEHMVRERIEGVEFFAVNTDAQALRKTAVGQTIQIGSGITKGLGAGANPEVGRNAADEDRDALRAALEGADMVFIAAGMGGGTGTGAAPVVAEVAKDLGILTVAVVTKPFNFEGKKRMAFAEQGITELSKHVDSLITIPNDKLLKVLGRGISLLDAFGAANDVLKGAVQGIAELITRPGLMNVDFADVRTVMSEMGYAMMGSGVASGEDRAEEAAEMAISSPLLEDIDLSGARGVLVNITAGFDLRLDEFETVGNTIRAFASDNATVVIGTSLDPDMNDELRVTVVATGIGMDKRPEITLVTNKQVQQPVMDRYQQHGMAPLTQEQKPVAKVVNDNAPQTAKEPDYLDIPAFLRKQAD

CC1=CC(C)=[N+]2C1=Cc1ccc(CCC(=O)OCC(Oc3ccc(F)c(C(N)=O)c3F)c3nc(-c4ccc(C(F)(F)F)cc4)c(Br)o3)n1[B-]2(F)F (centres unmarked) [BOFP]
Kd ([1]; Kd - 15 °C, 15 °C): 1720 ± 60 nM | Kd ([1]; Kd - 25 °C, 25 °C): 3050 ± 250 nM | Kd ([1]; Kd - 37 °C, 37 °C): 4620 ± 120 nM | ΔG [1, 5]: -7.6 ± 0.1 kcal/mol | ΔH [1, 6]: -7.9 ± 1.0 kcal/mol | ΔS [1, 6]: −1.2 ± 3.3 cal/mol•K | Kd ([2]; 15 °C, read-out: Kd - 15 °C): 230 ± 20 nM | Kd ([2]; 25 °C, read-out: Kd - 25 °C): 360 ± 60 nM | Kd ([2]; 37 °C, read-out: Kd - 37 °C): 580 ± 60 nM | ΔG [2, 5]: -8.8 ± 0.1 kcal/mol | ΔH [2, 6]: -7.7 ± 0.2 kcal/mol | Kd ([3]; 15 °C, read-out: Kd - 15 °C): 2500 ± 140 nM | Kd ([3]; 25 °C, read-out: Kd - 25 °C): 2620 ± 80 nM | Kd ([3]; 37 °C, read-out: Kd - 37 °C): 3140 ± 220 nM | ΔH [3, 6]: -1.9 ± 0.6 kcal/mol | Kd ([4]; 15 °C, read-out: Kd - 15 °C): 220 ± 30 nM | Kd ([4]; 25 °C, read-out: Kd - 25 °C): 280 ± 20 nM | Kd ([4]; 37 °C, read-out: Kd - 37 °C): 440 ± 40 nM | ΔG [4, 5]: -9.0 ± 0.1 kcal/mol | ΔH [4, 6]: -5.6 ± 0.8 kcal/mol
